Measurements: patent publication US8815249B2 (priority 1999, dated 2014)
“Also recorded” adds a separate entry of the source. Like-named read-outs stand apart in the source and are kept apart here. Non-standard residues stand in square brackets, D forms with d. Ava = NCCCCC(=O)O

Assays:
[1] = test system: HIV gp160(843-855) peptide; format: in vivo; details: B10.A (5R) mice, peptides in saline solution, serum day 35
Protocol: An ELISA assay for antibody responses following immunization with the experimental peptides indicated above was performed as follows. Fifty microliters (μl) of a solution of the coating peptide at 2 μg/well in 0.1 M carbonate buffer, pH 9.5 was added to each well of a 96-well Nunc-immunoplate (#442404) for an overnight incubation at 4° C. After aspiration, 250 μl of phosphate-buffer saline solution containing 3% fetal bovine serum (assay diluent) was added to each well for 2 hr at RT. After washing three times with assay diluent, 50 μl of 20-times diluted mouse serum in 1:3 serial dilution in assay diluent was added to each well for 2 hr at RT. After washing three times with assay diluent, 50 μl of 1 ÿg/ml biotinylated goat anti-mouse IgG1 or IgG2a was added to each well and incubated for 1 hr at RT. After washing three times with assay diluent, 50 μl of streptavidin-horse radish peroxidase conjugate (1:1000) was added to each well and incubated for 30 min at RT. After washing three times with assay diluent, 100 μl of tetramethylbenzidine/H2O2 solution (Pharmingen 264KK) was added to each well for 15 min in the dark at room temperature. The reaction was stopped with 100 μl 1N H2SO4 in each well and the absorbance was read immediately at 450 nm.
B10.A (5R) mice (H-2^k/b) were immunized with 20 nmole of peptides in 50 μl phosphate-buffered saline solution, intramuscularly in right and left rear legs on days 1 and 2, respectively. On day 14 the mice were boosted intramuscularly with 40 nmole of peptides in 200 μl Hank's balanced salts solution intramuscularly in a rear leg. On day 30 the mice were boosted intravenously with 40 nmole peptides dissolved in Hank's balanced salts solution (HBSS). On day 35 the mice were sacrificed and serum samples were assayed for antibody titers against the HIV gp160(843-855) peptide.

splenic T cells [2] = test system: splenic T cells; parameters: species or system B10(A) 5R mice; details: mouse, in vivo
splenic T cells [3] = format: in vivo; details: C3H/HeJ mice, spleen cells day 35 re-stimulated with HIV gp160(843-855) peptide, triplicate wells
Protocol: An ELISPOT assay for IFN-γ cytokine responses was performed in order to titer more exactly splenic T lymphocyte subset responses to immunization with Ii-Key-ava-gp160(843-855) or gp160(843-855). The assay was performed as follows. A solution of the cytokine-specific capture antibody (100 μl at 6 μg/ml in phosphate-buffered saline solution, pH 7.2) was added to each well of a 96-well Immunospot plate (M200) for an overnight incubation at 4° C. After aspiration, phosphate-buffer saline solution 200 μl containing 10% fetal bovine serum and 1% penicillin-streptomycin-glutamine (mouse medium) was added to each well for 2 hr at RT. After washing four times with 1% Tween-20 in phosphate-buffered saline solution (wash buffer I), 100 μl of single cell suspensions from the spleens of immunized mice at 10^6 cells/well were re-stimulated with 100 μl of peptide-epitope at 5 μg/well in mouse medium and incubated for 20-40 hr at 37° C., 5% CO2. After washing twice with phosphate-buffered saline solution (wash buffer II) and four times with wash buffer I, 100 μl of 2 ÿg/ml biotinylated anti-mouse IFN-γ in 1× phosphate buffer saline with 10% fetal bovine serum (dilution buffer) was added to each well for 2 hr at RT. After washing five times with wash buffer I, 100 il of streptavidin-horse radish peroxidase conjugate (1:500) in dilution buffer was added to each well for 1 hr at RT. After washing four times with wash buffer I and two times with wash buffer II, 100 μl of the 3-amino-9-ethylcarbazole/H2O2 substrate (Pharmingen 551951) was added and incubated for 30-60 min in the dark at RT. The reaction was stopped by washing three times with 200 μl of deionized water. ELISPOT data analysis was performed by using the Immunospot 1.7e software ([…]). […] Additional counting parameters for spot size and circularity were applied to gate out speckles caused by non-specific antibody binding. Each spot represents a single cell secreting IFN-γ.
C3H/HeJ(H-2^k) mice were immunized with 40 nmole of peptides (50 μl) emulsified with equal volume of incomplete Freund's adjuvant (IFA), subcutaneously at the base of the tail. On day 13 the mice were boosted subcutaneously at the base of the tail with 40 nmole of peptides (50 μl) emulsified with equal amount of incomplete Freund's adjuvant (IFA). On day 31, the mice were boosted intravenously with 40 nmole peptides dissolved in 100 μl Hank's balanced salts solution (HBSS). On day 35, the mice were sacrificed and single cell suspensions from spleens were assayed for IFN-γ responses to HIV gp160(843-855) peptide.
Number is the mean number of spots (and standard deviation) in triplicate wells and Size is the mean spot size in mm^2 (and standard deviation). Ii-Key/gp160(844-855) has one ava spacer (Ii-key-ava-gp160(844-855)).

[4] = test system: PGCC(95-104) epitope peptide; parameters: species or system C3H/HeJ mice; details: mouse, in vivo
[5] = test system: total splenic cells from DR4-IE Tg mice; experiment: IFN-γ ELISPOT recall response, total splenic cells, Ii-Key/gp100 hybrids; format: in vivo; details: specificity control
Description: Immunizations. DR4-IE Tg mice were immunized subcutaneously at the base of the tail with 40 nmole or 60 nmole of Ii-Key/gp100 MHC class II hybrid or epitope-only peptides, dissolved in saline and emulsified with an equal volume of either IFA or CFA. The synthetic phosphorothioate-modified CpG ODN 1826, 5′ TCC […] CTG ACGTT 3′ (SEQ ID NO.: 906) immunostimulatory nucleotide (CpG motif underlined) was purchased from Oligos Etc. (Wilsonville, Oreg.). DR4-IE Tg mice were vaccinated s.c. with 60 nmole of designated immunogen in an emulsion with IFA and 60 μg CpG. […]
ELISPOT assays. […] Digitalized images of spots were analyzed with a Series 1 Immunospot Analyzer and Immunospot 1.7e software (Cellular Technology Limited, Cleveland, Ohio). Criteria for spot size, circularity and color density were determined by comparing control and experimental wells. […] Only areas meeting the specified criteria were counted as spots. Mean and standard deviations were calculated for all assays. […]
Structure-activity rules identified in study. The stimulation of splenic mononuclear lymphocytes from HLA-DR4-IE Tg mice immunized with, respectively, with each of the peptides of Table 1.2 with complete Freund's adjuvant (CFA), was determined in an ELISPOT assay for IFN-γ, IL-4 and IL-2. […]

[6] = test system: tumor cells expressing CEA; details: cited from earlier work
[7] = test system: HLA alleles of the A2 supertype (A2.2, A2.3, A2.6 and A6802); details: cited from earlier work
MHC Class II molecules = details: cited from earlier work
[8] = test system: purified splenic CD4+ Th cells; parameters: species or system DR4-IE Tg mice; details: mouse, in vivo, sc

Question: Which results are given for “Ac-LRMK-AYRAIRHIPR-NH2 (Ac-LRMKAYRAIRHIPR-NH2) [gp160(843-855)]”?
Answer: Antibody induction, ELISA against HIV gp160(843-855) peptide ([1]; Dilution^−1 20): 0.052; Antibody induction, ELISA against HIV gp160(843-855) peptide ([1]; Dilution^−1 60): 0.023; Antibody induction, ELISA against HIV gp160(843-855) peptide ([1]; Dilution^−1 180): 0.000; Antibody induction, ELISA against HIV gp160(843-855) peptide ([1]; Dilution^−1 540): −0.005; Percentage of cells CD3^+/IFN-γ^+ (splenic T cells [2]): 2.05%; Percentage of cells CD4^+ (splenic T cells [2]): 31.03%; Percentage of cells CD4^+/IFN-γ^+ (splenic T cells [2]): 0.94%; Number (mean number of IFN-γ ELISPOT spots and standard deviation) (splenic T cells [3]): 5 (+/−3.6); Size (mean spot size and standard deviation) (splenic T cells [3]): 0.019 (+/−0.01) mm^2

Question: With “Ac-LRMK-ava-IAYLKQATAK-NH2 (Ac-LRMK[Ava]IAYLKQATAK-NH2; SMILES CC[C@H](C)[C@H](NC(=O)CCCCNC(=O)[C@H](CCCCN)NC(=O)[C@H](CCSC)NC(=O)[C@H](CCCNC(=N)N)NC(=O)[C@H](CC(C)C)NC(C)=O)C(=O)N[C@@H](C)C(=O)N[C@@H](Cc1ccc(O)cc1)C(=O)N[C@@H](CC(C)C)C(=O)N[C@@H](CCCCN)C(=O)N[C@@H](CCC(N)=O)C(=O)N[C@@H](C)C(=O)N[C@H](C(=O)N[C@@H](C)C(=O)N[C@@H](CCCCN)C(N)=O)[C@@H](C)O) [Ii-Key/PGCC]” as the substance, how does the “antibody titers against PGCC epitope” value [4] read?
Answer: Significantly greater antibody titers

Question: Which “Number (mean number of IFN-γ ELISPOT spots and standard deviation)” value (splenic T cells [3]) does the source give for “Ac-LRMK-ava-YRAIRHIPR-NH2 (Ac-LRMK[Ava]YRAIRHIPR-NH2; SMILES CC[C@H](C)[C@H](NC(=O)[C@H](C)NC(=O)[C@H](CCCNC(=N)N)NC(=O)[C@H](Cc1ccc(O)cc1)NC(=O)CCCCNC(=O)[C@H](CCCCN)NC(=O)[C@H](CCSC)NC(=O)[C@H](CCCNC(=N)N)NC(=O)[C@H](CC(C)C)NC(C)=O)C(=O)N[C@@H](CCCNC(=N)N)C(=O)N[C@@H](Cc1c[nH]cn1)C(=O)N[C@H](C(=O)N1CCC[C@H]1C(=O)N[C@@H](CCCNC(=N)N)C(N)=O)[C@@H](C)CC) [Ii-Key/one-ava/gp160(844-855)]” here?
Answer: 59 (+/−5)

Question: What about the “Size (mean spot size and standard deviation)” value (splenic T cells [3]) of the same substance?
Answer: 0.028 (+/−0.006) mm^2

Question: Which results are given for “GVGSPYVSRLLGICL [HER-2/neu (776-790) epitope]”?
Answer: spots on in vitro stimulation with non-specific DR4 restricted epitope ([5]; immunization in CFA): Less than 10 spots/well; spots on stimulation with non-specific HLA-DR4-restricted epitope ([5]; b664 CFA, b669 CpG in IFA): non-significant immune response; also recorded: three to six spots

Question: Which CTL induction [6] does the source give for HLFYSWYK [9.5.6] here?
Answer: elicited CTL lines that lysed tumor cells

Question: With LMTFWNPPV [9.5.2] as the substance, how does the “binding to HLA alleles of the A2 supertype” value [7] read?
Answer: bound tightly

Question: And the CTL induction [6]?
Answer: induced vigorous anti-tumor CTL responses

Question: Which “activity of Ii-Key peptides in presentation of antigenic peptides” value (from here on “activity of Ii-Key peptides”) (MHC Class II molecules) does the source give for LRMK here?
Answer: half-maximal activity

Question: With “LRMKLPK (printed: Leu-Arg-Met-Lys-Leu-Pro-Lys)” as the substance, how does the “activity of Ii-Key peptides” value (MHC Class II molecules) read?
Answer: significantly greater activity

Question: With LRMKLPKPPKPVSQMR [Ii(77-92)] as the substance, how does the “activity of Ii-Key peptides” value (MHC Class II molecules) read?
Answer: enhanced presentation of antigenic peptides

Question: Which CTL induction [6] does the source give for QYSWFVNGTF [9.5.4] here?
Answer: elicited CTL lines that lysed tumor cells

Question: Which IFN-γ spots [8] does the source give for RQLYPEWTEAQRL [Peptide A] here?
Answer: 491 spots
